Assay results from PubChem BioAssay (NCI).
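Briefly, cells in 96-well plates were exposed to five compound concentrations for 48 h, and endpoints were estimated by linear interpolation. The concentration for 50% growth inhibition is given as GI50. TGI marks complete inhibition of growth.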

Legend:
Test in all cases: DTP human tumour cell line panel, 48 h
786-0 renal = test system: 786-0 renal
A498 renal = test system: A498 renal
A549 NSCLC = test system: A549 NSCLC
ACHN renal = test system: ACHN renal
BT-549 breast = test system: BT-549 breast
CCRF-CEM leukemia = test system: CCRF-CEM leukemia
DU-145 prostate = test system: DU-145 prostate
EKVX NSCLC = test system: EKVX NSCLC
HCC-2998 colon = test system: HCC-2998 colon
HCT-116 colon = test system: HCT-116 colon
HCT-15 colon = test system: HCT-15 colon
HL-60(TB) leukemia = test system: HL-60(TB) leukemia
HOP-62 NSCLC = test system: HOP-62 NSCLC
HOP-92 NSCLC = test system: HOP-92 NSCLC
HS 578T breast = test system: HS 578T breast
HT29 colon = test system: HT29 colon
IGROV1 ovarian = test system: IGROV1 ovarian
KM12 colon = test system: KM12 colon
LOX IMVI melanoma = test system: LOX IMVI melanoma
M14 melanoma = test system: M14 melanoma
MALME-3M melanoma = test system: MALME-3M melanoma
MCF7 breast = test system: MCF7 breast
MDA-MB-231 breast = test system: MDA-MB-231 breast
MDA-MB-435 = test system: MDA-MB-435
MOLT-4 leukemia = test system: MOLT-4 leukemia
NCI-H226 lung = test system: NCI-H226 lung
NCI-H23 lung = test system: NCI-H23 lung
NCI-H460 lung = test system: NCI-H460 lung
NCI-H522 lung = test system: NCI-H522 lung
NCI/ADR-RES ovarian = test system: NCI/ADR-RES ovarian
OVCAR-3 ovarian = test system: OVCAR-3 ovarian
OVCAR-4 ovarian = test system: OVCAR-4 ovarian
OVCAR-5 ovarian = test system: OVCAR-5 ovarian
OVCAR-8 ovarian = test system: OVCAR-8 ovarian
PC-3 prostate = test system: PC-3 prostate
RXF 393 renal = test system: RXF 393 renal
SF-268 CNS = test system: SF-268 CNS
SF-295 CNS = test system: SF-295 CNS
SF-539 CNS = test system: SF-539 CNS
SK-MEL-2 melanoma = test system: SK-MEL-2 melanoma
SK-MEL-28 melanoma = test system: SK-MEL-28 melanoma
SK-MEL-5 melanoma = test system: SK-MEL-5 melanoma
SK-OV-3 ovarian = test system: SK-OV-3 ovarian
SN12C renal = test system: SN12C renal
SNB-19 CNS = test system: SNB-19 CNS
SNB-75 CNS = test system: SNB-75 CNS
SR leukemia = test system: SR leukemia
SW-620 colon = test system: SW-620 colon
T-47D breast = test system: T-47D breast
TK-10 renal = test system: TK-10 renal
U251 CNS = test system: U251 CNS
UACC-257 melanoma = test system: UACC-257 melanoma
UACC-62 melanoma = test system: UACC-62 melanoma
UO-31 renal = test system: UO-31 renal

## O=C(NCCNC(=O)c1ccc(F)cc1)Nc1ccc(-n2cc(-c3ccncc3)c(-c3ccc(Cl)c(O)c3)n2)cc1
786-0 renal
  GI50: 997 nM
  TGI: 5770 nM
A498 renal
  GI50: 336 nM
  TGI: 2830 nM
A549 NSCLC
  GI50: 1750 nM
  TGI: 9380 nM
ACHN renal
  GI50: 2320 nM
  TGI: 9640 nM
BT-549 breast
  GI50: 338 nM
  TGI: 2910 nM
CCRF-CEM leukemia
  GI50: 336 nM
  TGI: > 100000 nM
DU-145 prostate
  GI50: 411 nM
  TGI: > 100000 nM
EKVX NSCLC
  GI50: 1360 nM
  TGI: > 100000 nM
HCC-2998 colon
  GI50: 597 nM
  TGI: 2850 nM
HCT-116 colon
  GI50: 338 nM
  TGI: 1560 nM
HCT-15 colon
  GI50: 2120 nM
  TGI: 7000 nM
HL-60(TB) leukemia
  GI50: 273 nM
  TGI: 848 nM
HOP-62 NSCLC
  GI50: 697 nM
  TGI: 23100 nM
HOP-92 NSCLC
  GI50: 465 nM
  TGI: 5230 nM
HS 578T breast
  GI50: 462 nM
  TGI: > 100000 nM
HT29 colon
  GI50: 377 nM
  TGI: 1410 nM
IGROV1 ovarian
  GI50: 659 nM
  TGI: > 100000 nM
KM12 colon
  GI50: 433 nM
  TGI: 2280 nM
LOX IMVI melanoma
  GI50: 425 nM
  TGI: 2490 nM
M14 melanoma
  GI50: 288 nM
  TGI: 1250 nM
MALME-3M melanoma
  GI50: 714 nM
  TGI: 2430 nM
MCF7 breast
  GI50: 323 nM
  TGI: > 100000 nM
MDA-MB-231 breast
  GI50: 438 nM
  TGI: 2260 nM
MDA-MB-435
  GI50: 189 nM
  TGI: 577 nM
MOLT-4 leukemia
  GI50: 356 nM
  TGI: 3540 nM
NCI-H226 lung
  GI50: 809 nM
  TGI: 6480 nM
NCI-H23 lung
  GI50: 587 nM
  TGI: 7770 nM
NCI-H460 lung
  GI50: 329 nM
  TGI: 10500 nM
NCI-H522 lung
  GI50: 306 nM
  TGI: 2940 nM
NCI/ADR-RES ovarian
  GI50: > 100000 nM
  TGI: > 100000 nM
OVCAR-3 ovarian
  GI50: 326 nM
  TGI: 1200 nM
OVCAR-4 ovarian
  GI50: 585 nM
  TGI: > 100000 nM
OVCAR-5 ovarian
  GI50: 1030 nM
  TGI: 9820 nM
OVCAR-8 ovarian
  GI50: 491 nM
  TGI: > 100000 nM
PC-3 prostate
  GI50: 390 nM
  TGI: 8210 nM
RXF 393 renal
  GI50: 288 nM
  TGI: 3690 nM
SF-268 CNS
  GI50: 427 nM
  TGI: 7330 nM
SF-295 CNS
  GI50: 354 nM
  TGI: 1700 nM
SF-539 CNS
  GI50: 253 nM
  TGI: 957 nM
SK-MEL-2 melanoma
  GI50: 738 nM
  TGI: 4000 nM
SK-MEL-28 melanoma
  GI50: 1380 nM
  TGI: > 100000 nM
SK-MEL-5 melanoma
  GI50: 280 nM
  TGI: 1120 nM
SK-OV-3 ovarian
  GI50: 746 nM
  TGI: 48500 nM
SN12C renal
  GI50: 509 nM
  TGI: > 100000 nM
SNB-19 CNS
  GI50: 730 nM
  TGI: > 100000 nM
SNB-75 CNS
  GI50: 3050 nM
  TGI: > 100000 nM
SR leukemia
  GI50: 299 nM
  TGI: 2620 nM
SW-620 colon
  GI50: 430 nM
  TGI: > 100000 nM
T-47D breast
  GI50: 884 nM
  TGI: 16000 nM
TK-10 renal
  GI50: 2490 nM
U251 CNS
  GI50: 391 nM
  TGI: 2640 nM
UACC-257 melanoma
  GI50: 1370 nM
  TGI: 5890 nM
UACC-62 melanoma
  GI50: 555 nM
  TGI: 2320 nM
UO-31 renal
  GI50: 2400 nM
  TGI: > 100000 nM
